Data taken from PubChem BioAssay AID256 (DTP/NCI, 2004).
Inconclusive results and toxic doses are left out. How the source made its calls: active means survival T/C of 150% or more; inactive means T/C below 125% in these data.

Test system: CD2F1 mice, L1210 leukemia ip, survival T/C
Assay: NCI In Vivo Anticancer Drug Screen. Data for tumor model L1210 Leukemia (intraperitoneal) in CD2F1 (CDF1) mice
Details: endpoint: mean survival time, higher = longer survival
In short: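 Transplantable tumor in mice; compound-treated vs vehicle-treated groups. Read-out = treated/control ratio of the measured endpoint.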

[1] = dose: 100.0 mg/kg/injection, schedule: Q01DX009 (ip), vehicle: saline with Tween-80
[2] = dose: 100.0 mg/kg/injection, schedule: Q04DX003 (ip), vehicle: saline with Tween-80
[3] = dose: 200.0 mg/kg/injection, schedule: Q01DX009 (ip), vehicle: saline with Tween-80
[4] = dose: 200.0 mg/kg/injection, schedule: Q04DX003 (ip), vehicle: saline with Tween-80
[5] = dose: 400.0 mg/kg/injection, schedule: Q01DX009 (ip), vehicle: saline with Tween-80
[6] = dose: 400.0 mg/kg/injection, schedule: Q04DX003 (ip), vehicle: saline with Tween-80

Measured: T/C

CCOC(=O)/C(C#N)=N/Nc1cccc(Cl)c1Cl
inactive: dose: 100.0 mg/kg/injection, schedule: Q04DX002 (ip), vehicle: saline with Tween-80 96 % of control | dose: 200.0 mg/kg/injection, schedule: Q04DX002 (ip), vehicle: saline with Tween-80 96 % of control | dose: 400.0 mg/kg/injection, schedule: Q04DX002 (ip), vehicle: saline with Tween-80 100 % of control

S=c1[nH]cc[nH]1
inactive: dose: 100.0 mg/kg/injection, schedule: Q01DX001 (ip), vehicle: saline 103 % of control | dose: 200.0 mg/kg/injection, schedule: Q01DX001 (ip), vehicle: saline 100 % of control | dose: 400.0 mg/kg/injection, schedule: Q01DX001 (ip), vehicle: saline 96 % of control

O=C1c2ccccc2S(=O)(=O)N1CCBr
inactive: [1] 97 % of control | [2] 106 % of control | [3] 100 % of control | [4] 106 % of control | [5] 102 % of control | [6] 110 % of control

O=S(=O)(O)C(O)c1cccc2ccccc12 (stereo not given)
inactive: [2] 91 % of control | [4] 91 % of control | [6] 94 % of control

CCOC(=O)C1C(=O)N(C)C(=O)N1Cc1ccccc1 (stereo not given)
inactive: dose: 12.5 mg/kg/injection, schedule: Q01DX009 (ip), vehicle: other 93 % of control | dose: 25.0 mg/kg/injection, schedule: Q01DX009 (ip), vehicle: other 89 % of control | dose: 50.0 mg/kg/injection, schedule: Q01DX009 (ip), vehicle: other 101 % of control | dose: 100.0 mg/kg/injection, schedule: Q01DX009 (ip), vehicle: other 101 % of control | dose: 200.0 mg/kg/injection, schedule: Q01DX009 (ip), vehicle: other 101 % of control

CCNC(=O)OCC1C2=C(C(=O)C(C)=C(N)C2=O)N2CC3C(N3C)C12OC (stereo not given)
inactive: dose: 133.0 mg/kg/injection, schedule: Q01DX001 (ip), vehicle: carboxymethylcellulose (CMC) 118 % of control | dose: 300.0 mg/kg/injection, schedule: Q01DX001 (ip), vehicle: carboxymethylcellulose (CMC) 111 % of control

CCOP(=O)(C/C(=N\Nc1ccc([N+](=O)[O-])cc1[N+](=O)[O-])c1ccccc1)c1ccccc1 (stereo not given)
inactive: dose: 100.0 mg/kg/injection, schedule: Q01DX001 (ip), vehicle: saline with Tween-80 90 % of control | dose: 200.0 mg/kg/injection, schedule: Q01DX001 (ip), vehicle: saline with Tween-80 92 % of control | dose: 400.0 mg/kg/injection, schedule: Q01DX001 (ip), vehicle: saline with Tween-80 97 % of control

O=c1[nH]cc(Cl)cc1Cl
inactive: dose: 100.0 mg/kg/injection, schedule: Q04DX003 (ip), vehicle: other 91 % of control | dose: 200.0 mg/kg/injection, schedule: Q04DX003 (ip), vehicle: other 103 % of control | dose: 400.0 mg/kg/injection, schedule: Q04DX003 (ip), vehicle: other 105 % of control

O=C1C=C(c2ccccc2)C2(c3ccccc3)C1C1C(c3ccccc3)=C(c3ccccc3)C2C1(O)c1ccc2ccccc2c1 (stereo not given)
inactive: [1] 89 % of control | [3] 92 % of control | [5] 92 % of control

O=C(O)C1C2CC(O)C(C2)C1C(=O)O (stereo not given)
inactive: dose: 100.0 mg/kg/injection, schedule: Q01DX009 (ip), vehicle: saline 97 % of control | dose: 100.0 mg/kg/injection, schedule: Q04DX003 (ip), vehicle: saline 94 % of control | dose: 200.0 mg/kg/injection, schedule: Q01DX009 (ip), vehicle: saline 100 % of control | dose: 200.0 mg/kg/injection, schedule: Q04DX003 (ip), vehicle: saline 94 % of control | dose: 400.0 mg/kg/injection, schedule: Q01DX009 (ip), vehicle: saline 97 % of control | dose: 400.0 mg/kg/injection, schedule: Q04DX003 (ip), vehicle: saline 95 % of control

CN(C)CCCN1c2ccccc2Sc2ccc(C(F)(F)F)cc21
inactive: dose: 12.5 mg/kg/injection, schedule: Q01DX009 (ip), vehicle: saline 106 % of control | dose: 12.5 mg/kg/injection, schedule: Q04DX003 (ip), vehicle: saline 100 % of control | dose: 16.5 mg/kg/injection, schedule: Q01DX009 (ip), vehicle: saline with Tween-80 103 % of control | dose: 25.0 mg/kg/injection, schedule: Q01DX001 (ip), vehicle: saline 100 % of control | dose: 25.0 mg/kg/injection, schedule: Q01DX009 (ip), vehicle: saline with Tween-80 88 % of control | dose: 25.0 mg/kg/injection, schedule: Q01DX009 (ip), vehicle: saline 120 % of control | dose: 25.0 mg/kg/injection, schedule: Q04DX003 (ip), vehicle: saline 115 % of control | dose: 37.5 mg/kg/injection, schedule: Q01DX009 (ip), vehicle: saline with Tween-80 94 % of control | dose: 50.0 mg/kg/injection, schedule: Q01DX001 (ip), vehicle: saline 104 % of control | dose: 50.0 mg/kg/injection, schedule: Q04DX003 (ip), vehicle: saline 118 % of control

COc1cc(Cl)c(CC(=O)Cl)cc1OC
inactive: dose: 75.0 mg/kg/injection, schedule: Q01DX001 (ip), vehicle: saline 105 % of control | dose: 150.0 mg/kg/injection, schedule: Q01DX001 (ip), vehicle: saline 106 % of control | dose: 300.0 mg/kg/injection, schedule: Q01DX001 (ip), vehicle: saline 95 % of control
